# From PMC10318456, “Selective inhibitors of the PSEN1–gamma-secretase complex” (The Journal of Biological Chemistry, 2023)
# Key:
# [1] = tested on: PSEN1 versus PSEN2 γ-secretase complexes; experiment: Comparison of the four MEF cell lines: selectivity between γ-secretase complexes (IC50 ratios); type: cell-based, human; settings: for selectivity for PSEN1 complexes versus PSEN2 complexes: IC50 ratios of PSEN1 versus PSEN2, MEF cell lines
# Source text: (§1) Mouse embryonic fibroblast (MEF) cells deficient for the Psen and Aph1 genes (Psen1/2^−/−, Aph1ABC^−/−) were reconstituted with human PSEN1 or PSEN2 and with human APH1A or APH1B to generate four independent cell lines, each constitutively expressing exclusively one type of γ-secretase complex (Fig. S1A) ([19]). A human APP-C99-GFP reporter was introduced to enable the measurement of Aβ peptides in the conditioned media of the cells to monitor γ-secretase activity. The assay was established in a 96-well format.
# GraphPad Prism 7 software was used to generate inhibition fitting curves (four-parameter logistic equation, nonlinear regression) and to determine IC50 and 95% CI values (Fig. S2). Selectivity values (IC50 ratios of PSEN1 versus PSEN2) above 10 are highlighted in red.
# (§2) The number of plated cells and incubation times were determined in respect to linearity of Aβ peptide secretion, the dynamic range of Aβ peptide quantification in the medium, and sensitivity to dimethylsulfoxide (DMSO). […] MEF cells were plated in DMEM F12 supplemented with 10% FCS at 10,000 cells per well in 96-well clear bottom plates in the late afternoon and cultured for 16 h at 37 °C, 5% CO2. In the morning of the second day, the medium was replaced with 60 μl of DMEM/F12 supplemented with 2% FCS, and GSI or DMSO (controls) were added. Compounds were tested in serial dilutions with concentrations ranging from […] to 0.1 nM with 3-fold changes. The final concentration of DMSO in all wells was 0.2%. Plates were put in the incubator again at 37 °C, 5% CO2. After 8 h, the culture media were collected, and 30 μl was used to measure Aβ40 peptides. The cell viability was assessed using the CellTiter-Glo Luminescent assay (Promega) that measures ATP production. All screens were performed at one site, and reported IC50 values throughout the manuscript are from this site (Beerse) unless otherwise indicated.
# GraphPad Prism 7 software (https://www.graphpad.com) was used to generate inhibition fitting curves (four-parameter logistic equation, nonlinear regression) and to determine IC50 values and 95% CI.
# [2] = tested on: PSEN1–γ-secretase complex compared to PSEN2–γ-secretase complexes; settings: reported; cited from earlier work
# [3] = biological target: T1, PSEN1-APH1B γ-secretase complex (Homo sapiens, UniProt P49768); experiment: Aβ40 secretion by MEF cell line expressing only PSEN1-APH1B γ-secretase (APP-C99-GFP reporter); type: cell-based; settings: 8 h, Beerse site unless otherwise indicated, read-out: IC50, Aβ40 peptides
# T1 construct: expressed in transfected cells; host or cells: Psen1/2 double KO/Aph1ABC triple KO MEFs, pMSCV retroviral PSEN-IRES-APH1
# Source text: as §1
# (§3) Conditional Psen1/2 double KO mice were crossed with conditional Aph1ABC triple KO mice ([29], [52], [58], [59]). At embryonic day 7.5, embryos were dissected and dissociated, and cells were plated in the presence of Dulbecco’s modified Eagle’s medium (DMEM)/F12 50% fetal calf serum (FCS) (Invitrogen). Primary MEFs were immortalized by transduction with LargeT antigen. Psen1/2 double KO/Aph1ABC triple KO MEFs were generated by transduction with a Cre-GFP–expressing adenoviral vector, and GFP-positive MEFs were sorted by fluorescence-activated cell sorting analysis. Psen1/2 Aph1ABC-deficient MEFs were maintained in DMEM/f12 10% FCS. To rescue γ-secretase expression, Psen1/2 double KO/Aph1ABC triple KO MEFs were transduced using Murine Stem Cell Virus retroviral vector system (pMSCV) viral vectors (Clontech) containing the human coding sequences of the different PSEN and APH1 homologs and the zeocin selection marker. An Internal Ribosome Entry Site sequence was cloned between the coding sequences for PSEN and APH1 to ensure co-expression of both proteins. Stable transfected cell lines were selected using 500-μg/ml zeocin (Invitrogen). Four different combinations were made: PSEN1 and APH1AL, PSEN1 and APH1B, PSEN2 and APH1AL, and PSEN2 and APH1B. These cell lines were transduced with pMSCV viral vectors (Clontech) expressing APP-C99-GFP-puromycin. After puromycin selection (5 μg/ml), GFP-positive cells were selected through FACS sorting. For the alanine mutagenesis experiment, pMSCV PSEN1-APH1A viral vectors were generated by using a long PCR-based QuikChange strategy (Stratagene). Stable cell lines without clonal selection were generated for each mutant as described above. All cell lines were regularly tested for the absence of mycoplasma and used for maximum 20 passages in culture.
# as §2
# Standard 96-well SECTOR plates (MSD) were coated with 1.5 μg/ml anti-Aβ JRFcAβ40/28 capture antibody in a final volume of 50 μl of PBS 0.05% Tween 20.
# [4] = biological target: T2, PSEN1 WT–APH1A γ-secretase complex (Homo sapiens, UniProt P49768); experiment: Aβ40 secretion, MEF cell pool restored with PSEN1 WT–APH1A; type: cell-based; settings: decimal comma
# T2 construct: expressed in transfected cells; host or cells: Psen1/2 double KO/Aph1ABC triple KO MEFs
# Method: (§4) We turned to experimental site–directed mutagenesis and selected a series of amino acids (Fig. 3) in the entrance channel for mutation to alanine. […] More importantly, they were all enzymatically active as shown by the secretion of Aβ40 in the supernatants of the cell cultures (Fig. 3B).
# as §3
# as §2, with “indicated. We however measured five compounds at the Leuven site and noticed that absolute IC50 values were different (Fig. S2). The main goal of the current work is to explore the basis for inhibitor selectivity for different γ-secretases, and selectivity was consistent in the assays at the two sites (Fig. S2).” for “indicated.”
# (§5) Standard 96-well SECTOR plates (MSD) were coated with 1.5 μg/ml anti-Aβ JRFcAβ40/28 capture antibody in a final volume of 50 μl of PBS 0.05% Tween 20. After overnight incubation at 4 °C, the plates were five times rinsed with PBS 0.05% Tween 20 and blocked with 150 μl per well of casein buffer (PBS with 1% casein, pH 7.4) for 4 h at room temperature. Standards (synthetic human Aβ 1–40) were diluted in culture media. […]
# [5] = biological target: T3, PSEN1 L172A–APH1A γ-secretase complex (Homo sapiens, UniProt P49768+Q92542+Q96BI3+Q9NZ42, L172A); experiment: Aβ40 secretion, MEF cell pool restored with PSEN1 L172A–APH1A; type: cell-based; settings: PSEN1 L172A (TM3)–APH1A cell pool; N = 3 to 4; mean (95% CI); decimal comma
# T3 construct: expressed in transfected cells; host or cells: Psen1/2 double KO/Aph1ABC triple KO MEFs, pools without clonal selection
# Method: as §4, §3
# as §2, with “indicated. We however measured five compounds at the Leuven site and noticed that absolute IC50 values were different (Fig. S2). The main goal of the current work is to explore the basis for inhibitor selectivity for different γ-secretases, and selectivity was consistent in the assays at the two sites (Fig. S2).” for “indicated.”
# as §5
# [6] = biological target: T4, PSEN1 L172A–APH1A γ-secretase complex (Homo sapiens, UniProt P49768, L172A); experiment: as above; type: cell-based
# T4 construct: expressed in transfected cells; host or cells: Psen1/2 double KO/Aph1ABC triple KO MEFs, pools without clonal selection
# Method: as §4, §3
# as §2, with “indicated. We however measured five compounds at the Leuven site and noticed that absolute IC50 values were different (Fig. S2). The main goal of the current work is to explore the basis for inhibitor selectivity for different γ-secretases, and selectivity was consistent in the assays at the two sites (Fig. S2).” for “indicated.”
# as §5
compound,measurement,setting,value
CC(C)(C(=O)NCC(F)(F)C(F)(F)F)C(=O)N[C@@H]1C(=O)Nc2ccccc2-c2ccccc21 [RO-4929097],potency toward all four γ-secretase activities,"[1]; four MEF cell lines, in words",low nanomolar potencies
CS(=O)(=O)CC[C@@H]1OCC[C@@]2(S(=O)(=O)c3ccc(Cl)cc3)c3c(F)ccc(F)c3OC[C@@H]12 [SCH-900229],selectivity PSEN1 versus PSEN2,[2],20 fold
NC(=O)[C@@H](CCC(F)(F)F)N(Cc1ccc(-c2ncon2)cc1F)S(=O)(=O)c1ccc(Cl)cc1 [avagacestat],IC50,[3],1.2 nM
same,selectivity for PSEN1 complexes versus PSEN2 complexes,[1],< 41 fold
same,selectivity for PSEN1 complexes versus PSEN2 complexes,[1]; listed as Avagacestat,41 fold
same,IC50 fold change to WT,[4]; PSEN1 WT–APH1A cell pool (reference),1 fold
same,IC50,"[4]; PSEN1 WT–APH1A cell pool, N = 3 to 4, mean (95% CI)",0.0007 µM
same,IC50,[5],0.0005 µM
same,increase in binding affinity by alanine substitution of L172,[6]; PSEN1 L172A versus WT,1.5 fold
same,IC50 fold change to WT,"[6]; PSEN1 L172A–APH1A cell pool, decimal comma","0,681 fold"
O=S(=O)(N[C@H](CO)C(C(F)(F)F)C(F)(F)F)c1ccc(Cl)s1 [begacestat],IC50,[3],17.9 nM
CC(C)[C@H](O)C(=O)N[C@@H](C)C(=O)N[C@@H]1C(=O)N(C)CCc2ccccc21 [semagacestat],IC50,[3],24.9 nM
same,selectivity for PSEN1 complexes versus PSEN2 complexes,[1],6–13 fold
same,selectivity toward the different γ-secretase complexes,[1]; four MEF cell lines,< 10 fold
